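Cells were grown in 96-well plates and exposed to each compound for 48 hours at five concentrations; endpoints were interpolated linearly between bracketing concentrations, or set to the highest concentration if not reached. The concentration for 50% growth inhibition is given as GI50.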 Calls of active or inactive are those of the source. Rule as the data show it: active = GI50 up to about 1.1 µM and inactive = higher.
Experiments:
Assay in all cases: growth of human tumour cells (NCI), 48 h
IGROV-1 = system: IGROV-1
OVCAR-4 = system: OVCAR-4
SK-MEL-28 = system: SK-MEL-28
SR = system: SR
KM12 = system: KM12
NCI-H522 = system: NCI-H522
TK-10 = system: TK-10
786-0 = system: 786-0
UO-31 = system: UO-31
COLO 205 = system: COLO 205
MOLT-4 = system: MOLT-4
OVCAR-3 = system: OVCAR-3
MDA-N = system: MDA-N
DU-145 = system: DU-145
A549 = system: A549
CCRF-CEM = system: CCRF-CEM
U-251 = system: U-251
RXF 393 = system: RXF 393
EKVX = system: EKVX
HCC 2998 = system: HCC 2998

Measured: GI50

N#CC(C#N)=NNc1ccc2cn[nH]c2c1
inactive: IGROV-1 > 100 µM | OVCAR-4 30.7 µM | SK-MEL-28 > 100 µM | SR 22.6 µM | KM12 > 100 µM | NCI-H522 12.2 µM | TK-10 26.7 µM | 786-0 43.6 µM | UO-31 14 µM | COLO 205 25.6 µM | MOLT-4 21.5 µM | OVCAR-3 23.9 µM | MDA-N 43.9 µM | DU-145 29 µM | A549 > 100 µM | CCRF-CEM 13.6 µM | U-251 > 100 µM | RXF 393 26.6 µM | EKVX 47.3 µM

NCCNc1ncnc2ccc(Cl)cc12
inactive: IGROV-1 49.9 µM | OVCAR-4 > 100 µM | SK-MEL-28 > 100 µM | SR 45.7 µM | KM12 > 100 µM | NCI-H522 57.7 µM | TK-10 28.6 µM | 786-0 > 100 µM | UO-31 97.3 µM | COLO 205 49.3 µM | OVCAR-3 > 100 µM | MDA-N 99.1 µM | DU-145 > 100 µM | A549 93.8 µM | CCRF-CEM > 100 µM | U-251 > 100 µM | RXF 393 > 100 µM | EKVX > 100 µM

CCOC(=O)NC(Nc1ccc(C(=O)OCC)cc1)(C(F)(F)F)C(F)(F)F
inactive: IGROV-1 56.8 µM | OVCAR-4 > 100 µM | SK-MEL-28 > 100 µM | SR 86.3 µM | KM12 78.9 µM | NCI-H522 > 100 µM | TK-10 > 100 µM | 786-0 > 100 µM | UO-31 42.5 µM | COLO 205 > 100 µM | MOLT-4 11.1 µM | OVCAR-3 > 100 µM | MDA-N 49.8 µM | DU-145 > 100 µM | A549 50.9 µM | CCRF-CEM 6.58 µM | U-251 68.1 µM | HCC 2998 > 100 µM

Fc1cccc(F)c1C1SCC2=Nc3ccccc3CN21 (centres undefined)
inactive: IGROV-1 42.5 µM | OVCAR-4 > 100 µM | SK-MEL-28 > 100 µM | SR 37.8 µM | KM12 54 µM | TK-10 > 100 µM | 786-0 32.4 µM | UO-31 96.6 µM | COLO 205 > 100 µM | MOLT-4 74 µM | OVCAR-3 19 µM | MDA-N > 100 µM | DU-145 60 µM | A549 63 µM | CCRF-CEM > 100 µM | U-251 > 100 µM | RXF 393 23.9 µM | HCC 2998 > 100 µM | EKVX 79.6 µM

COC(=O)c1ccc(OCc2ccc3nc(-c4ccccc4)c(Cl)nc3c2)cc1
inactive: IGROV-1 85.5 µM | OVCAR-4 62.1 µM | SK-MEL-28 > 100 µM | SR > 100 µM | KM12 > 100 µM | NCI-H522 11.8 µM | TK-10 58.2 µM | 786-0 21 µM | UO-31 > 100 µM | COLO 205 76.2 µM | MOLT-4 91.6 µM | OVCAR-3 > 100 µM | MDA-N > 100 µM | DU-145 > 100 µM | A549 86.9 µM | CCRF-CEM > 100 µM | U-251 27.7 µM | HCC 2998 > 100 µM | EKVX > 100 µM

OCC(O)C(Cl)CCl (centres undefined)
inactive: IGROV-1 > 100 µM | OVCAR-4 > 100 µM | SK-MEL-28 > 100 µM | SR > 100 µM | KM12 > 100 µM | NCI-H522 > 100 µM | TK-10 > 100 µM | 786-0 > 100 µM | UO-31 > 100 µM | COLO 205 > 100 µM | MOLT-4 > 100 µM | OVCAR-3 > 100 µM | MDA-N > 100 µM | DU-145 > 100 µM | A549 > 100 µM | CCRF-CEM > 100 µM | U-251 > 100 µM | HCC 2998 > 100 µM | EKVX > 100 µM

CCC(=O)Nc1ccc(NC(C#N)c2cccc(Oc3ccccc3)c2)cc1 (centres undefined)
inactive: IGROV-1 48.2 µM | OVCAR-4 54.1 µM | SK-MEL-28 53.3 µM | SR 18.2 µM | KM12 58.6 µM | NCI-H522 48 µM | 786-0 35.5 µM | UO-31 42.2 µM | COLO 205 40.4 µM | MOLT-4 4.29 µM | OVCAR-3 52.4 µM | MDA-N 34.4 µM | DU-145 48.3 µM | A549 62.5 µM | CCRF-CEM 32.1 µM | RXF 393 38.6 µM | EKVX 67.6 µM

C=CCc1c(O)c2ccccc2[nH]c1=O
inactive: IGROV-1 > 100 µM | OVCAR-4 > 100 µM | SK-MEL-28 > 100 µM | SR > 100 µM | KM12 > 100 µM | NCI-H522 > 100 µM | TK-10 > 100 µM | 786-0 > 100 µM | UO-31 > 100 µM | COLO 205 > 100 µM | MOLT-4 > 100 µM | OVCAR-3 > 100 µM | MDA-N > 100 µM | DU-145 > 100 µM | A549 > 100 µM | CCRF-CEM > 100 µM | U-251 > 100 µM | HCC 2998 > 100 µM | EKVX > 100 µM

CN(C)CCNC(=O)Cn1ccc(=O)c2cc([N+](=O)[O-])ccc21
inactive: IGROV-1 > 100 µM | SK-MEL-28 > 100 µM | SR > 100 µM | KM12 > 100 µM | NCI-H522 > 100 µM | TK-10 > 100 µM | 786-0 > 100 µM | UO-31 > 100 µM | COLO 205 > 100 µM | MOLT-4 > 100 µM | OVCAR-3 > 100 µM | MDA-N > 100 µM | DU-145 > 100 µM | A549 > 100 µM | CCRF-CEM > 100 µM | U-251 > 100 µM | RXF 393 > 100 µM | HCC 2998 > 100 µM | EKVX > 100 µM

NS(=O)(=O)c1ccc(/N=N/c2nc3nc(O)nc(O)c3[nH]2)cc1
inactive: IGROV-1 > 100 µM | OVCAR-4 > 100 µM | SK-MEL-28 > 100 µM | SR 39.8 µM | KM12 > 100 µM | NCI-H522 > 100 µM | TK-10 > 100 µM | 786-0 > 100 µM | UO-31 > 100 µM | COLO 205 > 100 µM | OVCAR-3 > 100 µM | MDA-N > 100 µM | DU-145 > 100 µM | A549 > 100 µM | U-251 > 100 µM | RXF 393 > 100 µM | HCC 2998 > 100 µM | EKVX > 100 µM

CCOC(=O)c1c(CN2CCCC2)n(-c2ccccc2)c2cc(Br)c(O)cc12
inactive: IGROV-1 16.8 µM | OVCAR-4 14.3 µM | SK-MEL-28 15.1 µM | SR 18.7 µM | KM12 16.8 µM | NCI-H522 17.1 µM | TK-10 20.5 µM | 786-0 16.7 µM | UO-31 12.1 µM | COLO 205 10.5 µM | MOLT-4 17 µM | OVCAR-3 15.9 µM | MDA-N 17.2 µM | DU-145 19.6 µM | A549 16 µM | CCRF-CEM 2.06 µM | U-251 16.3 µM | RXF 393 12.4 µM | EKVX 17 µM

From ChEMBL document CHEMBL1201862, “PubChem BioAssay data set” (2004)
